Laboratory results taken from US20150344466A1 (SUMITOMO CHEMICAL COMPANY, LIMITED, priority 2013, published 2015).

How the values were obtained:
Format in all cases: in vivo
Blattella germanica = assay: Knockdown spray test on Blattella germanica, 0.1% w/v oil formulation (Test Example 2); conditions: topical, 0.25 h, active ingredient 0.1% w/v, 1.5 ml sprayed, within 15 minutes, read-out: knockdown rate of the test insects within 15 minutes
Protocol: Ten Blattella germanica (5 males and 5 females) were released in a test container (8.75 cm in diameter, 7.5 cm in height, and the bottom made of 16 mesh metallic wire) with the inner wall on which butter was applied, and the container was placed on the bottom of a test chamber (bottom: 46 cm×46 cm, height: 70 cm). From a height of 60 cm above the upper surface of the container, 1.5 ml of the test drug solution was sprayed using a spray gun (a spraying pressure of 0.42 kg/cm^2). Thirty seconds after spraying, the container was taken out from the test chamber, and after 2 minutes, 5 minutes and 15 minutes, the number of knocked-down insects was counted to obtain a knockdown rate. The knockdown rate was calculated by the following equation.
Knockdown Rate (%)=(Number of Knocked-down Insects/Number of Tested Insects)×100

Culex pipiens pallens = assay: Knockdown spray test on adult Culex pipiens pallens (Test Example 4); conditions: topical, 0.25 h, active ingredient 0.1% w/v, 0.5 ml sprayed, within 15 minutes, read-out: knockdown rate of the test insects within 15 minutes
Method in brief: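 Knockdown counts were taken 2, 5 and 15 min after spraying and expressed as percent of the 10 adults tested. For the spray, 0.5 ml of solution was applied by spray gun (0.4 kg/cm^2) from 30 cm above a gauze-covered cup in a test chamber; the cup was taken out right after spraying.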

Musca domestica = assay: Filter paper/sucrose bait death rate test on Musca domestica (Test Example 5); conditions: female imagoes of Musca domestica, 0.7 ml on filter paper, after 24 hours
Protocol: A filter paper having a diameter of 5.5 cm was spread on the bottom of a polyethylene cup having the same diameter and 0.7 ml of the test drug solution was added dropwise onto the filter paper, and 30 mg of sucrose was uniformly placed as bait.
Into the polyethylene cup, 10 female imagoes of Musca domestica were released, and the cup was sealed with a lid. After 24 hours, the life and death of Musca domestica was examined, and the death rate was calculated. The death rate was calculated by the following equation.
Death rate (%)=(Number of dead insects/Number of tested insects)×100

SMILES	pest or weed control at 0.1 % strength (Blattella germanica) [%]	pest or weed control at 0.1 % strength (Culex pipiens pallens) [%]	pest or weed control at 500 ppm (Musca domestica) [%]
O=C(NCC1CCOC1)c1cc(COCc2ccccc2Cl)on1 (stereo not drawn) [(66), N-(tetrahydrofuran-3-ylmethyl)-5-(2-chlorobenzyloxymethyl)isoxazole-3-carboxamide]	≥ 80	≥ 80	≥ 90
O=C(NCC1CCOCC1)c1cc(COCc2ccccc2Cl)on1 [(67), N-(tetrahydropyran-4-ylmethyl)-5-(2-chlorobenzyloxymethyl)isoxazole-3-carboxamide]	≥ 80	≥ 80	≥ 90
O=C(NCC1CCOC1)c1cc(COCc2cccc(Cl)c2)on1 (stereo not drawn) [(68)]	≥ 80	≥ 80	≥ 90
Cc1cccc(COCc2cc(C(=O)NCC3CCOC3)no2)c1 (stereo not drawn) [(82), N-(tetrahydrofuran-3-ylmethyl)-5-(3-methylbenzyloxymethyl)isoxazole-3-carboxamide]	≥ 80	≥ 80	≥ 90
COc1cccc(COCc2cc(C(=O)NCC3CCOC3)no2)c1 (stereo not drawn) [(84), N-(tetrahydrofuran-3-ylmethyl)-5-(3-methoxybenzyloxymethyl) isoxazole-3-carboxamide]	≥ 80	≥ 80	≥ 90
O=C(NCC1CCOC1)c1cc(COCc2cccc(COCc3ccccc3)c2)on1 (stereo not drawn) [(121), N-(tetrahydrofuran-3-ylmethyl)-5-(3-benzyloxymethylbenzyloxymethyl)isoxazole-3-carboxamide]	≥ 80	≥ 80	≥ 90
O=C(NCC1CCOCC1)c1cc(COc2cccc(F)c2)on1 [(195), N-(tetrahydropyran-4-ylmethyl)-5-(3-fluorophenoxymethyl)isoxazole-3-carboxamide]	≥ 80	≥ 80	≥ 90
O=C(NCC1CCOC1)c1cc(COCc2cc(F)cc(F)c2)on1 (stereo not drawn) [(266), 14-(tetrahydrofuran-3-ylmethyl)-5-(3,5-difluorobenzyloxymethyl)isoxazole-3-carboxamide]	≥ 80	≥ 80	≥ 90
O=C(NCC1CCOC1)c1cc(COCc2cc(F)c(F)c(F)c2)on1 (stereo not drawn) [(267), N-(tetrahydrofuran-3-ylmethyl)-5-(3,4,5-trifluorobenzyloxymethyl)isoxazole-3-carboxamide]	≥ 80	≥ 80	≥ 90
O=C(NCC1CCOC1)c1cc(COCc2cc(F)cc(Cl)c2)on1 (stereo not drawn) [(268), N-(tetrahydrofuran-3-ylmethyl)-5-(3-chloro-5-fluorobenzyloxymethyl)isoxazole-3-carboxamide]	≥ 80	≥ 80	≥ 90
O=C(NCC1CCOC1)c1cc(COCc2ccc(F)c(F)c2F)on1 (stereo not drawn) [(270), N-(tetrahydrofuran-3-ylmethyl)-5-(2,3,4-trifluorobenzyloxymethyl)isoxazole-3-carboxamide]	≥ 80	≥ 80	≥ 90
Cc1cc(C)cc(COCc2cc(C(=O)NCC3CCOC3)no2)c1 (stereo not drawn) [(271), N-(tetrahydrofuran-3-ylmethyl)-5-(3,5-dimethylbenzyloxymethyl)isoxazole-3-carboxamide]	–	≥ 80	≥ 90
O=C(NCC1CCOC1)c1cc(COCc2cccc(F)c2F)on1 (stereo not drawn) [(274), N-(tetrahydrofuran-3-ylmethyl)-5-(2,3-difluorobenzyloxymethyl)isoxazole-3-carboxamide]	≥ 80	≥ 80	≥ 90
O=C(NCC1CCOC1)c1cc(COCc2c(F)cccc2F)on1 (stereo not drawn) [(275), N-(tetrahydrofuran-3-ylmethyl)-5-(2,6-difluorobenzyloxymethyl)isoxazole-3-carboxamide]	–	≥ 80	≥ 90
O=C(NCC1CCOC1)c1cc(COCc2ccc(F)cc2F)on1 (stereo not drawn) [(278), N-(tetrahydrofuran-3-ylmethyl)-5-(2,4-difluorobenzyloxymethyl)isoxazole-3-carboxamide]	≥ 80	≥ 80	≥ 90
Cc1c(C(=O)NCC2CCOC2)noc1COCc1ccccc1F (stereo not drawn) [(286), N-(tetrahydrofuran-3-ylmethyl)-5-(2-fluorobenzyloxymethyl)-4-methylisoxazole-3-carboxamide]	≥ 80	≥ 80	≥ 90

SMILES	pest or weed control at 0.1 % strength (Blattella germanica) [%]	pest or weed control at 0.1 % strength (Culex pipiens pallens) [%]	pest or weed control at 500 ppm (Musca domestica) [%]
O=C(NCC1CCOC1)c1cc(Cc2cc(F)cc(F)c2)on1 (stereo not drawn) [(305), N-(tetrahydrofuran-3-ylmethyl)-5-(3,5-difluorobenzyl)isoxazole-3-carboxamide]	≥ 80	≥ 80	≥ 90
O=C(NCC1CCOC1)c1cc(Cc2cccs2)on1 (stereo not drawn) [(308), N-(tetrahydrofuran-3-ylmethyl)-5-(2-thienylmethyl)isoxazole-3-carboxamide]	–	≥ 80	≥ 90
O=C(NCC1CCOC1)c1cc(Cc2ccsc2)on1 (stereo not drawn) [(309), N-(tetrahydrofuran-3-ylmethyl)-5-(3-thienylmethyl)isoxazole-3-carboxamide]	≥ 80	≥ 80	≥ 90
COc1cccc(Cc2cc(C(=O)NCC3CCOC3)no2)c1 (stereo not drawn) [(312), N-(tetrahydrofuran-3-ylmethyl)-5-(3-methoxybenzyl)isoxazole-3-carboxamide]	≥ 80	≥ 80	–
COc1ccc(Cc2cc(C(=O)NCC3CCOC3)no2)cc1 (stereo not drawn) [(314), N-(tetrahydrofuran-3-ylmethyl)-5-(4-methoxybenzyl)isoxazole-3-carboxamide]	≥ 80	≥ 80	≥ 90
COc1ccccc1Cc1cc(C(=O)NCC2CCOC2)no1 (stereo not drawn) [(317), N-(tetrahydrofuran-3-ylmethyl)-5-(2-methoxybenzyl)isoxazole-3-carboxamide]	≥ 80	≥ 80	–
O=C(NCC1CCOC1)c1cc(Cc2ccc(F)cc2)on1 (stereo not drawn) [(319), N-(tetrahydrofuran-3-ylmethyl)-5-(4-fluorobenzyl)isoxazole-3-carboxamide]	≥ 80	≥ 80	≥ 90
O=C(NCC1CCOC1)c1cc(Cc2ccc(Cl)cc2)on1 (stereo not drawn) [(322), N-(tetrahydrofuran-3-ylmethyl)-5-(4-chlorobenzyl)isoxazole-3-carboxamide]	≥ 80	≥ 80	≥ 90
O=C(NCC1CCOC1)c1cc(Cc2cccc(-c3ccccc3)c2)on1 (stereo not drawn) [(327)]	≥ 80	≥ 80	–
Cc1cccc(Cc2cc(C(=O)NCC3CCOC3)no2)c1 (stereo not drawn) [(328), N-(tetrahydrofuran-3-ylmethyl)-5-(3-methylbenzyl)isoxazole-3-carboxamide]	≥ 80	≥ 80	–
Cc1ccc(Cc2cc(C(=O)NCC3CCOC3)no2)cc1 (stereo not drawn) [(329), N-(tetrahydrofuran-3-ylmethyl)-5-(4-methylbenzyl)isoxazole-3-carboxamide]	≥ 80	≥ 80	–
CC1(CNC(=O)c2cc(COCc3ccc4ccccc4c3)on2)COC1 [(333), N-(3-methyloxetan-3-ylmethyl)-5-(2-naphthylmethoxymethyl)isoxazole-3-carboxamide]	–	≥ 80	≥ 90
CC1(C)CC(NC(=O)c2cc(COCc3ccccc3)on2)CCO1 (stereo not drawn) [(335), N-(2,2-dimethyltetrahydropyran-4-yl)-5-benzyloxymethylisoxazole-3-carboxamide]	–	≥ 80	≥ 90
O=C(NCC1CCOC1)c1cc(COCc2ccc3sccc3c2)on1 (stereo not drawn) [(336), N-(tetrahydrofuran-3-ylmethyl)-5-[(5-benzothiophenyl)methoxymethyl]isoxazole-3-carboxamide]	≥ 80	≥ 80	–
CCc1c(C(=O)NCC2CCOC2)noc1COCc1ccc2ccccc2c1 (stereo not drawn) [(338), N-(tetrahydrofuran-3-ylmethyl)-5-(2-naphthylmethoxymethyl)-4-ethylisoxazole-3-carboxamide]	≥ 80	≥ 80	–
